# According to ChEMBL document CHEMBL5550205, “Discovery of a NCOA4 Degrader for Labile Iron-Dependent Ferroptosis Inhibition” (J Med Chem, 2024):
# Calls of active or inactive are those of the source. No cut-off for these calls is given here.
# Columns and labels:
# [1] = biological target: T1, von Hippel-Lindau disease tumor suppressor/Nuclear receptor coactivator 4 (Homo sapiens, UniProt P40337+Q13772); assay: PROTAC activity at NCOA4/VHL in human HeLa cells assessed as downregulation of NCOA4 level measured after 3 hrs by Western blot analysis; format: cell-based
# T1 sequence (P40337 whole entry, looked up): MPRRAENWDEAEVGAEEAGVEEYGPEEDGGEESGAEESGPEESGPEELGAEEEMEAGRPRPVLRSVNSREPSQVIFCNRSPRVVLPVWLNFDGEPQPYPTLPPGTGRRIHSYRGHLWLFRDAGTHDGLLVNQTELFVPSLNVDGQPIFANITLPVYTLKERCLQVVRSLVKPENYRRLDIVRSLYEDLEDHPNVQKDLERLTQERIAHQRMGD
# T1 sequence (Q13772 whole entry, looked up): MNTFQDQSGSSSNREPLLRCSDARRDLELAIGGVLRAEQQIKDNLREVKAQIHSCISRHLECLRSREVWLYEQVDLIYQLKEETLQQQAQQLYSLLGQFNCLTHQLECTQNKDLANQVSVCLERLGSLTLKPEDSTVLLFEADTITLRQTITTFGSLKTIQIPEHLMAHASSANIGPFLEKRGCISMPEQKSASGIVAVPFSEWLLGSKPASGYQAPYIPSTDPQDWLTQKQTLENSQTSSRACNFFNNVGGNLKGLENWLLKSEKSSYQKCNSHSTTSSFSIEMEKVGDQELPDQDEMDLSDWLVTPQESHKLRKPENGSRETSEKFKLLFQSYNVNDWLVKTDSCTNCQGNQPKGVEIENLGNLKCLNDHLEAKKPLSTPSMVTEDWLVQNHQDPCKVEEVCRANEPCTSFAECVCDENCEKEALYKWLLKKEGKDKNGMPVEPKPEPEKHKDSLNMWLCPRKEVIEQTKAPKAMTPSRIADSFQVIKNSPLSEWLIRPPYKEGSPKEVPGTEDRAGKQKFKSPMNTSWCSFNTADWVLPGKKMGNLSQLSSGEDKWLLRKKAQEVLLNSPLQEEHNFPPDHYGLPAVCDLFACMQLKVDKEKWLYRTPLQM
# [2] = biological target: T1, von Hippel-Lindau disease tumor suppressor/Nuclear receptor coactivator 4; assay: PROTAC activity at NCOA4/VHL in human HeLa cells assessed as induction of NCOA4 degradation at 50 nM measured 36 to 48 hrs by Western blot analysis; format: cell-based; details: time 36-48 hrs
# [3] = biological target: von Hippel-Lindau disease tumor suppressor/Nuclear receptor coactivator 4 (Mus musculus) (UniProt P40338+Q5U4H9); assay: PROTAC activity at NCOA4/VHL in mouse AML12 cells assessed as effect on NCOA4 mRNA level at 0.12 to 10 uM incubated for 24 hrs by qRT-PCR analysis; format: cell-based; details: dose 0.12-10 µM
# Chain of von Hippel-Lindau disease tumor suppressor/Nuclear receptor coactivator 4 (Mus musculus) (P40338 whole entry, looked up): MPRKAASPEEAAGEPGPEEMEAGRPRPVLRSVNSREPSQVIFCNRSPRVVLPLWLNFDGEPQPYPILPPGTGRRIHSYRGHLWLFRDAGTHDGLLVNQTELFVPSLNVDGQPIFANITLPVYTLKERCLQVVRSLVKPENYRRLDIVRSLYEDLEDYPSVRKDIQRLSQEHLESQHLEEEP
# Chain of von Hippel-Lindau disease tumor suppressor/Nuclear receptor coactivator 4 (Mus musculus) (Q5U4H9 whole entry, looked up): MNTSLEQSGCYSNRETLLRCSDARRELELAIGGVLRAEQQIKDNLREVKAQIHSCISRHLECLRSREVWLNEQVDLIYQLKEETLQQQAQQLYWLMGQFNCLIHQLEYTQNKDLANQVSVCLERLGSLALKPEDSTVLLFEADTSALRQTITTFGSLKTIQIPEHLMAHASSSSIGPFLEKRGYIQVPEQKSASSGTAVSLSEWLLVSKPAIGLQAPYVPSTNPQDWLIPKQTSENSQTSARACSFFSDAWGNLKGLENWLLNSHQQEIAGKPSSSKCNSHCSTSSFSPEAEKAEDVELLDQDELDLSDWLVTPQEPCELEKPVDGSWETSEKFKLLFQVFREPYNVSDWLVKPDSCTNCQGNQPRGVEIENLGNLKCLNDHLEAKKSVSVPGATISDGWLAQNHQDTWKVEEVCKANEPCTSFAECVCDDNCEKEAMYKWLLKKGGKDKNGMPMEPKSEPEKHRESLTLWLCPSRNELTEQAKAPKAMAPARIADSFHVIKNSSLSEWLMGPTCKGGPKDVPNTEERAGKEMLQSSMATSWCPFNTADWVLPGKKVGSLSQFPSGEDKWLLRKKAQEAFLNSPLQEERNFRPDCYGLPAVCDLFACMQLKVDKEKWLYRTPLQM
# [4] = system: AML12; assay: Upregulation of FTL level in mouse AML12 cells incubated for 24 hrs by Western blot analysis; format: functional, cell-based; details: dose <= 10.0 µM
# [5] = system: AML12; assay: Effect on FTH1 mRNA expression in mouse AML12 cells at 0.12 to 10 uM measured for 36 hrs by RT-qPCR analysis; format: functional, cell-based; details: dose 0.12-10 µM
# [6] = system: AML12; assay: Downregulation of MDA level in mouse AML12 cells measured for 36 hrs; format: functional, cell-based; details: dose <= 10.0 µM
# [7] = system: AML12; assay: Inhibition of Ptgs2 mRNA expression in mouse AML12 cells measured for 36 hrs by qRT-PCR analysis; format: functional, cell-based; details: dose <= 10.0 µM
# [8] = system: AML12; assay: Protection against Erastin-induced ferroptosis in mouse AML12 cells assessed as increase in cell viability at 200 nM measured for 48 hrs by cell counting-lite 2.0 analysis; format: functional, cell-based
# [9] = system: AML12; assay: Protection against RSL3-induced ferroptosis in mouse AML12 cells assessed as increase in cell viability at 200 nM measured for 48 hrs by cell counting-lite 2.0 analysis; format: functional, cell-based
# [10] = system: AML12; assay: Protection against iFSP-induced ferroptosis in mouse AML12 cells assessed as increase in cell viability at 200 nM measured for 48 hrs by cell counting-lite 2.0 analysis; format: functional, cell-based
# [11] = system: AML12; assay: Protection against FINO2-induced ferroptosis in mouse AML12 cells assessed as increase in cell viability at 200 nM measured for 48 hrs by cell counting-lite 2.0 analysis; format: functional, cell-based
# [12] = system: AML12; assay: Protection against Erastin-induced ferroptosis in mouse AML12 cells assessed as attenuation of Fe2+ level by fluorescence imaging analysis; format: functional, cell-based
# [13] = system: AML12; assay: Protection against Brequinal-induced ferroptosis in mouse AML12 cells assessed as attenuation of Fe2+ level by fluorescence imaging analysis; format: functional, cell-based
# [14] = system: AML12; assay: Protection against iFSP1-induced ferroptosis in mouse AML12 cells assessed as attenuation of Fe2+ level by fluorescence imaging analysis; format: functional, cell-based
# [15] = system: AML12; assay: Protection against FINO2-induced ferroptosis in mouse AML12 cells assessed as attenuation of Fe2+ level by fluorescence imaging analysis; format: functional, cell-based
# [16] = system: AML12; assay: Protection against Erastin-induced ferroptosis in mouse AML12 cells assessed as reduction in lipid peroxidation level at 200 nM measured for 48 hrs; format: functional, cell-based
# [17] = system: AML12; assay: Protection against Brequinal-induced ferroptosis in mouse AML12 cells assessed as reduction in lipid peroxidation level at 200 nM measured for 48 hrs; format: functional, cell-based
# [18] = system: AML12; assay: Protection against iFSP1-induced ferroptosis in mouse AML12 cells assessed as reduction in lipid peroxidation level at 200 nM measured for 48 hrs; format: functional, cell-based
# [19] = system: AML12; assay: Protection against CCl4-induced ferroptosis in mouse AML12 cells assessed as reduction in lipid peroxidation level at 200 to 1000 nM; format: functional, cell-based; details: dose 200-1000 nM
# [20] = system: AML12; assay: Protection against CCl4-induced ferroptosis in mouse AML12 cells assessed as […] at 200 nM measured for 48 hrs; format: functional, cell-based
# [21] = system: AML12; assay: Protection against CCl4-induced ferroptosis in mouse AML12 cells assessed as cell viability in presence of Deferoxamine; format: functional, cell-based
# [22] = system: Mus musculus; assay: Inhibition of CCl4-induced ferroptosis in acute liver injury C57BL/6 mouse model assessed as downregulation of NCOA4 level at 10 to 30 mg/kg, ip pretreated with compound for 3 hrs followed by CCl4 induction and measured after 12 to 24 hrs by Western blot analysis; format: functional, organism-based; details: dose 10-30 mg/kg, time 15-27 hrs
# [23] = system: Mus musculus; assay: Inhibition of CCl4-induced ferroptosis in acute liver injury C57BL/6 mouse model assessed as downregulation of FTH1 level at 10 to 30 mg/kg, ip pretreated with compound for 3 hrs followed by CCl4 induction and measured after 12 to 24 hrs by Western blot analysis; format: functional, organism-based; details: dose 10-30 mg/kg, time 15-27 hrs
# [24] = system: Mus musculus; assay: Inhibition of CCl4-induced ferroptosis in acute liver injury C57BL/6 mouse model assessed as downregulation of FTL level at 10 to 30 mg/kg, ip pretreated with compound for 3 hrs followed by CCl4 induction and measured after 12 to 24 hrs by Western blot analysis; format: functional, organism-based; details: dose 10-30 mg/kg, time 15-27 hrs
# [25] = system: Mus musculus; assay: Inhibition of CCl4-induced ferroptosis in acute liver injury C57BL/6 mouse model assessed as attenuation of iron deposition in liver at 10 to 30 mg/kg, ip pretreated with compound for 3 hrs followed by CCl4 induction and measured after 12 to 24 hrs by perls blue staining based analysis; format: functional, organism-based; details: dose 10-30 mg/kg, time 15-27 hrs
# [26] = system: Mus musculus; assay: Inhibition of CCl4-induced ferroptosis in acute liver injury C57BL/6 mouse model assessed as reduction in MDA content in liver at 10 to 30 mg/kg, ip pretreated with compound for 3 hrs followed by CCl4 induction and measured after 12 to 24 hrs; format: functional, organism-based; details: dose 10-30 mg/kg, time 15-27 hrs
# [27] = system: Mus musculus; assay: Inhibition of CCl4-induced ferroptosis in acute liver injury C57BL/6 mouse model assessed as reduction in hepatocyte damage at 10 to 30 mg/kg, ip pretreated with compound for 3 hrs followed by CCl4 induction and measured after 12 to 24 hrs by H and E staining based analysis; format: functional, organism-based; details: dose 10-30 mg/kg, time 15-27 hrs
# [28] = system: Mus musculus; assay: Inhibition of CCl4-induced ferroptosis in acute liver injury C57BL/6 mouse model assessed as reduction in necrosis at 10 to 30 mg/kg, ip pretreated with compound for 3 hrs followed by CCl4 induction and measured after 12 to 24 hrs by H and E staining based analysis; format: functional, organism-based; details: dose 10-30 mg/kg, time 15-27 hrs
# [29] = system: Mus musculus; assay: Inhibition of CCl4-induced ferroptosis in acute liver injury C57BL/6 mouse model assessed as inhibition of ALT level at 10 to 30 mg/kg, ip pretreated with compound for 3 hrs followed by CCl4 induction and measured after 12 to 24 hrs; format: functional, organism-based; details: dose 10-30 mg/kg, time 15-27 hrs
# [30] = system: Mus musculus; assay: Inhibition of CCl4-induced ferroptosis in acute liver injury C57BL/6 mouse model assessed as reduction in IL-6 level in serum at 10 to 30 mg/kg, ip pretreated with compound for 3 hrs followed by CCl4 induction and measured after 12 to 24 hrs by ELISA analysis; format: functional, organism-based; details: dose 10-30 mg/kg, time 15-27 hrs
# [31] = system: Mus musculus; assay: Inhibition of CCl4-induced ferroptosis in acute liver injury C57BL/6 mouse model assessed as reduction in TNF-alpha level in serum at 10 to 30 mg/kg, ip pretreated with compound for 3 hrs followed by CCl4 induction and measured after 12 to 24 hrs by ELISA analysis; format: functional, organism-based; details: dose 10-30 mg/kg, time 15-27 hrs
# [32] = system: Mus musculus; assay: Inhibition of CCl4-induced ferroptosis in acute liver injury C57BL/6 mouse model assessed as decrease in IL-1beta expression in liver at 10 to 30 mg/kg, ip pretreated with compound for 3 hrs followed by CCl4 induction and measured after 12 to 24 hrs by q-PCR analysis; format: functional, organism-based; details: dose 10-30 mg/kg, time 15-27 hrs
structure (smiles),measurement,setting,value
Cc1ncsc1-c1ccc(CNC(=O)[C@@H]2C[C@@H](O)CN2C(=O)[C@H](NC(=O)CCCC(=O)NCCOCCOCCOCCOc2ccc3c(c2)CCN(c2cccc(-c4nc5ccc(N6CCN(C)CC6)cc5[nH]4)c2)C3)C(C)(C)C)cc1,Activity,[1],Active
same,Activity,[2],Active
same,Activity,[3],Active
same,Activity,[4],Dose-Dependent Effect
same,Activity,[5],inactive
same,Activity,[6],Dose-Dependent Effect
same,inhibition,[7],Dose-Dependent Effect
same,Activity,[8],Active
same,Activity,[9],Active
same,Activity,[10],Active
same,Activity,[11],Active
same,Activity,[12],Active
same,Activity,[13],Active
same,Activity,[14],Active
same,Activity,[15],Active
same,Activity,[16],Active
same,Activity,[17],Active
same,Activity,[18],Active
same,Activity,[19],Active
same,Activity,[20],Active
same,EC50,[21],410 nM
same,inhibition,[22],Active
same,inhibition,[23],Active
same,inhibition,[24],Active
same,inhibition,[25],Active
same,inhibition,[26],Active
same,inhibition,[27],Active
same,inhibition,[28],Active
same,inhibition,[29],Active
same,inhibition,[30],Active
same,inhibition,[31],Active
same,inhibition,[32],Active
